# Measured values from article PMC4999056 (European Journal of Medicinal Chemistry, 2016).
# pEC50: −log10 of the molar value. Where two headings read alike, the source gives them in different places.
# Legend:
# [1] = in vitro
# [2] = system: YFV; test: microbe, parasite or virus in culture; type: cell-based, yellow fever virus; conditions: for pEC50: read-out: Yellow fever EC50
# [3] = system: DENV (serotype 2); test: microbe, parasite or virus in culture; type: cell-based, Dengue virus serotype 2; conditions: for pEC50: read-out: Dengue EC50
# [4] = in vitro; conditions: chlorocebus aethiops
Compound,CC50 ([1]; chlorocebus aethiops),Yellow fever SI [2],"pEC50 ([2]; Yellow fever virus, Vero B)",Dengue SI [3],"pEC50 ([3]; Dengue virus, Vero B)",CC50 ([4]; Yellow fever CC50),further results
"Cc1cc(-c2ccccc2NC(=O)c2nccnc2C(=O)Nc2ccc(F)cc2)[nH]n1 [6m, N^2-(4-fluorophenyl)-N^3-(2-(3-methyl-1H-pyrazol-5-yl)phenyl)pyrazine-2,3-dicarboxamide]",> 120 µM,10,5.11,>55,5.66,,fold increase of DENV inhibitory properties [3]: 12 fold; CC50 at 168 h ([4]; Yellow fever CC50): 77 µM
"Cc1ccc(NC(=O)c2nccnc2C(=O)Nc2ccc(F)cc2)c(-c2cccs2)c1 [6c, N^2-(4-fluorophenyl)-N^3-(4-methyl-2-(thiophen-2-yl)phenyl)pyrazine-2,3-dicarboxamide]",> 116 µM,,4.64,>25,5.34,> 116 µM,
"Cc1ccc(NC(=O)c2ccccc2NC(=O)c2ccc(F)cc2)c(-c2ccncc2)c1 [13c, 2-(4-fluorobenzamido)-N-(4-methyl-2-(pyridin-4-yl)phenyl)benzamide]",> 117 µM,1,< 3.93,>7,4.77,> 50 µM,CC50 ([4]; Yellow fever CC50 (visual)): 30 µM
"Cc1ccc(NC(=O)c2nccnc2C(=O)Nc2ccc(C)cc2-c2ccc(C)s2)cc1 [6f, N^2-(4-methyl-2-(5-methylthiophen-2-yl)phenyl)-N^3-(p-tolyl)pyrazine-2,3-dicarboxamide]",> 113 µM,,,1,< 3.95,,Dengue EC50 [3]: complete loss of DENV inhibitory activity
"Cc1ccc(NC(=O)c2ccccc2NC(=O)c2ccc(F)cc2)c(-c2ccc(C)s2)c1 [13b, 2-(4-fluorobenzamido)-N-(4-methyl-2-(5-methylthiophen-2-yl)phenyl)benzamide]",> 113 µM,1,< 3.95,>35,5.49,> 113 µM,CC50 ([4]; Yellow fever CC50 (visual)): 12.5 µM
"Cc1ccc(NC(=O)c2nccnc2C(=O)Nc2ccc(C)cc2-c2ccsc2)cc1 [6h, N^2-(4-methyl-2-(thiophen-3-yl)phenyl)-N^3-(p-tolyl)pyrazine-2,3-dicarboxamide]",,1,< 3.94,>29,5.47 to 6.30,> 116 µM,CC50 at 168 h ([1]; chlorocebus aethiops): 26 µM; pEC50 [3]: > 6.05
"Cc1ccc(NC(=O)c2nccnc2C(=O)NCc2ccccc2-c2ccsc2)cc1 [6j, N^2-(2-(thiophen-3-yl)benzyl)-N^3-(p-tolyl)pyrazine-2,3-dicarboxamide]",,14,,1,< 4.32,,CC50 at 168 h ([1]; chlorocebus aethiops): 48 µM; pEC50 [2]: 5.27; CC50 at 168 h ([4]; Yellow fever CC50): 75 µM
"Cc1ccc(NC(=O)c2ccccc2C(=O)NCc2ccc(-c3ccsc3)cc2)cc1 [7l, N^1-(4-(thiophen-3-yl)benzyl)-N^2-(p-tolyl)phthalamide]",> 117 µM,>35,5.48,>8,4.86,> 117 µM,
"Cc1ccc(NC(=O)c2nccnc2C(=O)Nc2ccc(C)cc2-c2cccs2)cc1 [6d, N^2-(4-methyl-2-(thiophen-2-yl)phenyl)-N^3-(p-tolyl)pyrazine-2,3-dicarboxamide]",> 117 µM,,,>235,6.30,,CC50 ([1]; green monkey): > 116 µM; fold increase in DENV activity for the methyl congener [3]: 10 fold
"Cc1ccc(NC(=O)c2nccnc2C(=O)Nc2ccc(F)cc2)c(-c2ccc(C)s2)c1 [6e, N^2-(4-fluorophenyl)-N^3-(4-methyl-2-(5-methylthiophen-2-yl)phenyl)pyrazine-2,3-dicarboxamide]",> 112 µM,,,1,< 3.95,,Dengue EC50 [3]: complete loss of DENV inhibitory activity
"Cc1ccc(NC(=O)c2ccccc2NC(=O)c2ccc(F)cc2)c(-c2ccsc2)c1 [13a, 2-(4-fluorobenzamido)-N-(4-methyl-2-(thiophen-3-yl)phenyl)benzamide]",> 116 µM,,< 3.94,,< 3.94,> 116 µM,
"Cc1ccc(NC(=O)c2ccccc2C(=O)Nc2ccccc2-c2cc(C)n[nH]2)cc1 [7n, N^1-(2-(3-methyl-1H-pyrazol-5-yl)phenyl)-N^2-(p-tolyl)phthalamide]",> 122 µM,>21,5.24,>9,4.85,> 122 µM,
"Cc1ccc(NC(=O)c2ccccc2C(=O)Nc2ccc(C)cc2-c2cccs2)cc1 [7d, N^1-(4-methyl-2-(thiophen-2-yl)phenyl)-N^2-(p-tolyl)phthalamide]",> 117 µM,>1.6,4.63,>8,4.85,> 37 µM,
"Cc1ccc(NC(=O)c2ccccc2NC(=O)c2ccc(F)cc2)c(-c2cccnc2)c1 [13d, 2-(4-fluorobenzamido)-N-(4-methyl-2-(pyridin-3-yl)phenyl)benzamide]",> 117 µM,1,< 3.93,>5,4.64,> 50 µM,CC50 ([4]; Yellow fever CC50 (visual)): 39 µM
"Cc1ccc(NC(=O)c2ccccc2C(=O)Nc2ccc(C)cc2-c2ccc(C)s2)cc1 [7e, N^1-(4-methyl-2-(5-methylthiophen-2-yl)phenyl)-N^2-(p-tolyl)phthalamide]",> 114 µM,3.4,5.17,>57,5.70,,CC50 at 168 h ([4]; Yellow fever CC50): 23 µM
"Cc1ccc(NC(=O)c2nccnc2C(=O)Nc2ccc(F)cc2)c(-c2ccsc2)c1 [6g, N^2-(4-fluorophenyl)-N^3-(4-methyl-2-(thiophen-3-yl)phenyl)pyrazine-2,3-dicarboxamide]",> 116 µM,>11,4.97,>55,5.68,> 116 µM,
"Cc1ccc(NC(=O)c2ccccc2C(=O)Nc2ccc(F)cc2)c(-c2ccsc2)c1 [7h, N^1-(4-fluorophenyl)-N^2-(4-methyl-2-(thiophen-3-yl)phenyl)phthalamide]",,10,5.19,16,5.52,,CC50 at 168 h ([1]; chlorocebus aethiops): 47 µM; CC50 at 168 h ([4]; Yellow fever CC50): 67 µM
Cc1ccc(NC(=O)c2nc[nH]c2C(=O)Nc2ccc(F)cc2)c(-c2cc(C)n[nH]2)c1 [compound 1],,,5.46,,5.60,,
"O=C(NCc1ccc(-c2ccsc2)cc1)c1nccnc1C(=O)Nc1ccc(F)cc1 [6k, N^2-(4-fluorophenyl)-N^3-(4-(thiophen-3-yl)benzyl)pyrazine-2,3-dicarboxamide]",> 116 µM,>6,4.73,1,< 3.94,> 116 µM,
"Cc1ccc(NC(=O)c2nccnc2C(=O)Nc2ccc(C)cc2-c2cc(C)n[nH]2)cc1 [6b, N^2-(4-methyl-2-(3-methyl-1H-pyrazol-5-yl)phenyl)-N^3-(p-tolyl)pyrazine-2,3-dicarboxamide]",> 117 µM,,,>235,6.30,,CC50 ([1]; green monkey): > 116 µM; fold increase of DENV inhibitory properties [3]: 50 fold
"Cc1ccc(NC(=O)c2ccccc2C(=O)Nc2ccc(C)cc2-c2cc(C)n[nH]2)cc1 [7c, N^1-(4-methyl-2-(3-methyl-1H-pyrazol-5-yl)phenyl)-N^2-(p-tolyl)phthalamide]",> 117 µM,,,>4,4.54,,fold loss in DENV inhibitory activity [3]: 60 fold
"Cc1ccc(NC(=O)c2nccnc2C(=O)Nc2ccccc2-c2cc(C)n[nH]2)cc1 [6n, N^2-(2-(3-methyl-1H-pyrazol-5-yl)phenyl)-N^3-(p-tolyl)pyrazine-2,3-di-carboxamide]",,>34,6.40,7,5.47,> 13.6 µM,CC50 at 168 h ([1]; chlorocebus aethiops): 24 µM; fold reduced DENV inhibitory activity [3]: 7 fold
"O=C(NCc1ccc(-c2ccsc2)cc1)c1ccccc1C(=O)Nc1ccc(F)cc1 [7k, N^1-(4-fluorophenyl)-N^2-(4-(thiophen-3-yl)benzyl)phthalamide]",> 116 µM,>16,5.13,>7,4.80,> 117 µM,
"Cc1ccc(NC(=O)c2ccccc2C(=O)Nc2ccc(F)cc2)c(-c2ccc(C)s2)c1 [7f, N^1-(4-fluorophenyl)-N^2-(4-methyl-2-(5-methylthiophen-2-yl)phenyl)phthalamide]",> 113 µM,>17,5.17,>39,5.54,> 113 µM,
"Cc1ccc(NC(=O)c2ccccc2C(=O)Nc2ccc(F)cc2)c(-c2cccs2)c1 [7b, N^1-(4-fluorophenyl)-N^2-(4-methyl-2-(thiophen-2-yl)phenyl)phthalamide]",> 117 µM,>1.6,4.63,>29,5.40,> 37 µM,
"Cc1ccc(NC(=O)c2nccnc2C(=O)Nc2ccc(F)cc2)c(-c2cc(C)n[nH]2)c1 [6a, N^2-(4-fluorophenyl)-N^3-(4-methyl-2-(3-methyl-1H-pyrazol-5-yl)phenyl) pyrazine-2,3 dicarboxamide]",> 116 µM,,,>4,4.58,,fold reduction in inhibitory properties against dengue virus [3]: 10 fold
"Cc1ccc(NC(=O)c2ccccc2C(=O)Nc2ccc(C)cc2-c2ccsc2)cc1 [7g, N^1-(4-methyl-2-(thiophen-3-yl)phenyl)-N^2-(p-tolyl)phthalamide]",,>60,5.72,,6.30,> 117 µM,CC50 at 168 h ([1]; chlorocebus aethiops): 12.9 µM; CC50 ([1]; green monkey): > 116 µM; pEC50 [3]: 6.15
"Cc1ccc(NC(=O)c2ccccc2C(=O)Nc2ccc(F)cc2)c(-c2cc(C)n[nH]2)c1 [7a, N^1-(4-fluorophenyl)-N^2-(4-methyl-2-(3-methyl-1H-pyrazol-5-yl)phenyl)phthal-amide]",> 117 µM,,,>235,6.30,,fold more inhibitory against dengue virus [3]: 5 fold
